In article PMC12349723, “Computationally accelerated identification of P-glycoprotein inhibitors” (PLOS One, 2025):
Read-outs that look alike come from different tables or passages of the source.

System: DU145-TXR cells
Assay: MTT viability assay, reversal of MDR (re-sensitization to paclitaxel) in P-gp overexpressing DU145-TXR cells
Assay type: cell-based, human
Conditions: for % Survival, mean / % Survival: 15 µM compound + 500 nM PTX (Paclitaxel, Taxol); for % Survival, mean / % Survival / viability at 15 µM: DU145-TXR; for viability at 15 µM: Homo sapiens, 15 µM Compound Alone
Method: The chemotherapeutic sensitive DU145 human prostate cancer cells and the multidrug resistant sub-line, DU145-TXR, were generous gifts from Dr. Evan Keller (University of Michigan, Ann Arbor, MI). The MDR, P-gp overexpressing DU145-TXR cells were maintained under positive selection pressure by supplementing complete medium with 10 nM paclitaxel (Acros Organics, NJ). In addition to the aforementioned cell lines, the chemotherapeutic sensitive A2780 ovarian cancer cells (93112519, Sigma) and the multidrug resistant A2780-ADR (93112520, Sigma) were maintained in complete RPMI media consisting of RPMI-1640 with L-glutamine, 10% fetal bovine serum (FBS; Corning), 100 U/mL penicillin and 100 μg/mL streptomycin in a humidified incubator at 37 °C and 5% CO2. The MDR, P-gp overexpressing A2780-ADR cell line was maintained under positive selection pressure by supplementing complete medium with 100 nM doxorubicin (Fisher Scientific, NJ). The non-cancerous HFL1 (human lung fibroblast) cell line cell line was a generous gift from Dr. Robert Harrod (Southern Methodist University, Dallas, TX) and was maintained in complete F12K media consisting of F12K with 10% fetal bovine serum, 100 U/mL penicillin, and 100 µg/mL streptomycin (Gibco). Flasks and 96 well plates that were used with the non-cancerous line HFL1 were pre-treated with 0.1 mg/ml Collagen Type 1 (Gibco) and rinsed with PBS (Fisher).
Culture of the DU145, DU145-TXR, and HFL1 cell lines was performed as described in [8]. Culture of the A2780 and A2780-ADR cell lines was performed as described in [9]. MTT assays were performed as described in [8] with minor modifications. LC-MS/MS accumulation assays were performed as described in {Nanayakkara, 2018 #173} [9] with some modifications. […] The inhibitor concentration was lowered to 15 µM here, as the goal of the study was to identify compounds that were effective in reversing MDR at low concentrations, and to determine if the expanded virtual-assisted methods improved on our first-draft attempt. Compounds 56–98 were pre-screened using Resazurin cell viability assays: cells were incubated with 15 µM compound with or without 500 nM PTX for 48 hours, after which cell survival was assessed similar to [39]. Data represent the mean of two separate experiments, with n = 3 samples per experiment (n = 6 total) (S4 Table). The top performing compounds from this initial screen were re-tested with MTT viability assays against DU145-TXR cells, as described below.
MTT assays measure the reduction of yellow, water soluble 3-(4,5-dimethylthiazol-2-yl)-2,5-diphenyltetrazolium bromide (MTT) to blue, insoluble formazan crystals by cellular reductase processes in living cells. Cells were trypsinized from monolayers and seeded in complete medium in 96 well plates. Cancerous cell lines (DU145, DU145-TXR, A2780, A2780-ADR) were seeded at 3,000 cells per well in complete RPMI medium. The non-cancerous HFL1 line was seeded at 4,000 cells per well in complete F12K medium, in collagen-treated plates (Collagen Type 1, Gibco). Cells were incubated with experimental compounds for 48 hours at 37 °C and 5% CO2 in a humidified incubator. At 48 hours, MTT was added (20 µL/well of 5 mg/mL MTT in PBS) to each well. After incubation for 4 hours, the media was removed, and the formazan crystals were dissolved in 100 µL DMSO per well. Plates containing the semi-adherent A2780 or A2780-ADR lines were spun at 1400 rpm for 3 minutes prior to aspiration of media, and the addition of DMSO. Plates were shaken for 10 minutes at 500 rpm on an Orbital shaker (LabDoctor from MidSci, St Louis, MO). The absorbance was measured at 570 nm using a Bio-Tek Cytation 5 (Bio-Tek, Winooski, VT). The measured absorbance value was correlated with the number of metabolically active cells in that well, corrected for absorbance of media. […]

[1] = mean of 8 samples, read-out: % Survival, mean
[2] = trial 1, sample 1, read-out: % Survival
[3] = trial 1, sample 2, read-out: % Survival
[4] = trial 1, sample 3, read-out: % Survival
[5] = trial 1, sample 4, read-out: % Survival
[6] = trial 2, sample 1, read-out: % Survival
[7] = trial 2, sample 2, read-out: % Survival
[8] = trial 2, sample 3, read-out: % Survival
[9] = trial 2, sample 4, read-out: % Survival

O=C(c1cc2ccccc2[nH]1)N1CCN(S(=O)(=O)c2cccc3nonc23)CC1 [Compound 66, O=C(N1CCN(CC1)S(=O)(=O)c1cccc2nonc12)c1cc2ccccc2[nH]1]
% Survival, mean (mean of 8 samples): 81.6% | % Survival (trial 1, sample 1): 89% | % Survival (trial 1, sample 2): 94% | % Survival (trial 1, sample 3): 92% | % Survival (trial 1, sample 4): 90% | % Survival (trial 2, sample 1): 73% | % Survival (trial 2, sample 2): 76% | % Survival (trial 2, sample 3): 68% | % Survival (trial 2, sample 4): 70% | viability at 15 µM [1]: 84.2% | viability at 15 µM [2]: 87% | viability at 15 µM [3]: 96% | viability at 15 µM [4]: 92% | viability at 15 µM [5]: 90% | viability at 15 µM [6]: 76% | viability at 15 µM [7]: 73% | viability at 15 µM [8]: 78% | viability at 15 µM [9]: 82%

Nc1nonc1-n1nnc(C(=O)N/N=C/c2c3ccccc3cc3ccccc23)c1COc1ccc(F)cc1 [Compound 60, Nc1nonc1-n1nnc(C(=O)N\N=C\c2c3ccccc3cc3ccccc23)c1COc1ccc(F)cc1]
% Survival, mean (mean of 8 samples): 92.8% | % Survival (trial 1, sample 1): 84% | % Survival (trial 1, sample 2): 102% | % Survival (trial 1, sample 3): 83% | % Survival (trial 1, sample 4): 120% | % Survival (trial 2, sample 1): 83% | % Survival (trial 2, sample 2): 92% | % Survival (trial 2, sample 3): 89% | % Survival (trial 2, sample 4): 89% | viability at 15 µM [1]: 93.6% | viability at 15 µM [2]: 100% | viability at 15 µM [3]: 103% | viability at 15 µM [4]: 90% | viability at 15 µM [5]: 96% | viability at 15 µM [6]: 93% | viability at 15 µM [7]: 88% | viability at 15 µM [8]: 95% | viability at 15 µM [9]: 83%

COc1ccc(OC)c(NC(=O)c2nnn(-c3ccc4noc(-c5ccccc5)c4c3)c2C)c1 [Compound 71, COc1ccc(OC)c(NC(=O)c2nnn(c2C)-c2ccc3noc(-c4ccccc4)c3c2)c1]
% Survival, mean (mean of 8 samples): 41.6% | % Survival (trial 1, sample 1): 48% | % Survival (trial 1, sample 2): 45% | % Survival (trial 1, sample 3): 45% | % Survival (trial 1, sample 4): 51% | % Survival (trial 2, sample 1): 33% | % Survival (trial 2, sample 2): 33% | % Survival (trial 2, sample 3): 36% | % Survival (trial 2, sample 4): 42% | viability at 15 µM [1]: 33.8% | viability at 15 µM [2]: 44% | viability at 15 µM [3]: 33% | viability at 15 µM [4]: 39% | viability at 15 µM [5]: 41% | viability at 15 µM [6]: 36% | viability at 15 µM [7]: 25% | viability at 15 µM [8]: 28% | viability at 15 µM [9]: 25%

CCN1CCN(Cc2c(C(=O)N/N=C3/C(=O)N(C)c4ccccc43)nnn2-c2nonc2N)CC1 [Compound 61, CCN1CCN(Cc2c(nnn2-c2nonc2N)C(=O)N\N=C2\C(=O)N(C)c3ccccc23)CC1]
% Survival, mean (mean of 8 samples): 51.6% | % Survival (trial 1, sample 1): 62% | % Survival (trial 1, sample 2): 67% | % Survival (trial 1, sample 3): 64% | % Survival (trial 1, sample 4): 77% | % Survival (trial 2, sample 1): 33% | % Survival (trial 2, sample 2): 35% | % Survival (trial 2, sample 3): 31% | % Survival (trial 2, sample 4): 44% | Re-sensitization of DU145-TXR cells to PTX (reversal of MDR) (15 µM compound with or without 500 nM PTX, 48 h, MTT, re-sensitization = 30% or greater decrease in cell viability): re-sensitized DU145-TXR cells to PTX | viability at 15 µM [1]: 99.3% | viability at 15 µM [2]: 118% | viability at 15 µM [3]: 117% | viability at 15 µM [4]: 119% | viability at 15 µM [5]: 123% | viability at 15 µM [6]: 93% | viability at 15 µM [7]: 75% | viability at 15 µM [8]: 77% | viability at 15 µM [9]: 72%
